ChEMBL document CHEMBL1909046, “DrugMatrix in vitro pharmacology data”

Columns and labels:
[1] = biological target: T1, B2 bradykinin receptor (Homo sapiens, UniProt P30411); type: cell membranes, Membrane; details: chem-1
T1 sequence (P30411 whole entry): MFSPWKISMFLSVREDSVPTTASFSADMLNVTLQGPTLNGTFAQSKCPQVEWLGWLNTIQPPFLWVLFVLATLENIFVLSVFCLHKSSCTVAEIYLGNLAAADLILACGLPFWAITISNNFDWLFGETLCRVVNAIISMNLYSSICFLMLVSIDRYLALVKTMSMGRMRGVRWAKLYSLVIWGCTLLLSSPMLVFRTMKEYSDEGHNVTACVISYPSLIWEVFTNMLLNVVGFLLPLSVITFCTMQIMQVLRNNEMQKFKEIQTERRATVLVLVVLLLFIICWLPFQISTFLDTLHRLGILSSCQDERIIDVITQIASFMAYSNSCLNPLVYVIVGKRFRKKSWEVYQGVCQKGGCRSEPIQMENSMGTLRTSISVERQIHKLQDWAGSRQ

[2] = biological target: Glycine receptor (Rattus norvegicus, UniProt P22771+P24524+P07727+P20781); type: cell membranes, Wistar, Spinal cord, Membrane
[3] = biological target: T2, Cysteinyl leukotriene receptor 1 (Homo sapiens, UniProt Q9Y271); type: cell membranes, CHO-K1, Membrane; details: cho-k1
T2 sequence (Q9Y271 whole entry): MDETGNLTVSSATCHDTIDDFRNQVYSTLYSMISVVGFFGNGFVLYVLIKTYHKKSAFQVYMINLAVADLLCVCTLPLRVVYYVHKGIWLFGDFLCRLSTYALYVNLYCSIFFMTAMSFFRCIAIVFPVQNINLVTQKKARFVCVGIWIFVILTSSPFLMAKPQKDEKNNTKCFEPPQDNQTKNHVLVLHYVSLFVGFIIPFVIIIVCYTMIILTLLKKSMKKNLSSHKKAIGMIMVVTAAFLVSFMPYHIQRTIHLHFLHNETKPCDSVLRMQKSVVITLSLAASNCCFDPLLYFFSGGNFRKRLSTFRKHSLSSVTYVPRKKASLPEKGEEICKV

[4] = biological target: Cytochrome P450 2C9 (Homo sapiens, UniProt P11712); details: bti-tn-5b1-4
Further: in other assays of this panel Not Active means under 50% inhibition at 10 µM.

Cytochrome P450 2C9, sequence (P11712 whole entry): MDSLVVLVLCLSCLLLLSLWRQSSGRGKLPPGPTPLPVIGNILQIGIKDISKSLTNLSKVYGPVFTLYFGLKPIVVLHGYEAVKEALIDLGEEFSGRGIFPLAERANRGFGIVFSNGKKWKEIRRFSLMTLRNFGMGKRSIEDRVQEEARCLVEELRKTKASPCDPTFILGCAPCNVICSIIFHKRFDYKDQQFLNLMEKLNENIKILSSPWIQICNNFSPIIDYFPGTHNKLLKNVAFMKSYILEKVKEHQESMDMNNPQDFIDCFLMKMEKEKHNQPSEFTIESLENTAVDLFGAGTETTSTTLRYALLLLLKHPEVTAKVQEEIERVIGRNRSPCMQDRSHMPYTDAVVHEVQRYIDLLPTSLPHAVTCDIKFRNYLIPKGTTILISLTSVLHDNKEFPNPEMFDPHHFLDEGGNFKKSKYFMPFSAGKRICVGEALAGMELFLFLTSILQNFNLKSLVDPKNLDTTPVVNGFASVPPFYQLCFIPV

CO[C@H]1O[C@@H]2O[C@@]3(C)CC[C@H]4[C@H](C)CC[C@@H]([C@H]1C)[C@@]24OO3
Not Active: IC50 [1] | IC50 [2] | IC50 [3] | IC50 [4] | Ki [4]

COc1ccc(C[C@H](N)C(=O)N[C@H]2[C@@H](O)[C@H](n3cnc4c(N(C)C)ncnc43)O[C@@H]2CO)cc1 [PUROMYCIN]
Not Active: IC50 [1] | IC50 [2] | IC50 [3] | IC50 [4] | Ki [4]

C[C@@H]1[C@H](O)[C@@H](C)/C=C/C=C/C=C/C=C/C=C/C=C/C=C/[C@H](O[C@@H]2O[C@H](C)[C@@H](O)[C@H](N)[C@@H]2O)C[C@@H]2O[C@](O)(C[C@@H](O)C[C@@H](O)[C@H](O)CC[C@@H](O)C[C@@H](O)CC(=O)O[C@H]1C)C[C@H](O)[C@H]2C(=O)O [AMPHOTERICIN B]
Not Active: IC50 [1] | IC50 [2] | IC50 [3] | IC50 [4] | Ki [4]

Cc1c(N)nc([C@H](CC(N)=O)NC[C@H](N)C(N)=O)nc1C(=O)N[C@H](C(=O)N[C@H](C)[C@@H](O)[C@H](C)C(=O)N[C@H](C(=O)NCCc1nc(-c2nc(C(=O)NCCC[S+](C)C)cs2)cs1)[C@@H](C)O)[C@@H](O[C@@H]1O[C@@H](CO)[C@@H](O)[C@H](O)[C@@H]1O[C@H]1O[C@H](CO)[C@@H](O)[C@H](OC(N)=O)[C@@H]1O)c1c[nH]cn1.[Br-] [BLEOMYCIN A2]
Not Active: IC50 [1] | IC50 [2] | IC50 [3] | IC50 [4] | Ki [4]

Nc1nc(F)nc2c1ncn2[C@@H]1O[C@H](CO)[C@@H](O)[C@@H]1O [FLUDARABINE]
Not Active: IC50 [1] | IC50 [2] | IC50 [3] | IC50 [4] | Ki [4]

NCC(CC(=O)O)c1ccc(Cl)cc1 (stereo unspecified) [BACLOFEN]
Not Active: IC50 [1] | IC50 [2] | IC50 [3] | IC50 [4] | Ki [4]

O=C(Nc1ccc(Cl)c(Cl)c1)c1cc(Cl)cc(Cl)c1O [3,3',4',5-TETRACHLOROSALICYLANILIDE]
Not Active: IC50 [1] | IC50 [2] | IC50 [3] | IC50 [4] | Ki [4]

Oc1ccccc1 [PHENOL]
Not Active: IC50 [1] | IC50 [2] | IC50 [3] | IC50 [4] | Ki [4]

CC(C)NCC(O)COc1ccc(CC(N)=O)cc1 (stereo unspecified) [ATENOLOL]
Not Active: IC50 [1] | IC50 [2] | IC50 [3]

CNC[C@H](O)c1ccc(O)c(O)c1 [EPINEPHRINE]
Not Active: IC50 [1] | IC50 [2] | IC50 [3] | IC50 [4] | Ki [4]

CC(C)Cc1ccc([C@H](C)C(=O)O)cc1 [DEXIBUPROFEN]
Not Active: IC50 [1] | IC50 [2] | IC50 [3] | IC50 [4] | Ki [4]

NS(=O)(=O)c1cc(C(=O)O)c(NCc2ccco2)cc1Cl [FUROSEMIDE]
Not Active: IC50 [1] | IC50 [2] | IC50 [3]

COc1ccc(Cl)cc1C(=O)NCCc1ccc(S(=O)(=O)NC(=O)NC2CCCCC2)cc1 [GLYBURIDE]
Not Active: IC50 [1] | IC50 [2] | IC50 [3]

CCN(CCO)CCCC(C)Nc1ccnc2cc(Cl)ccc12 (stereo unspecified) [HYDROXYCHLOROQUINE]
Not Active: IC50 [1] | IC50 [2] | IC50 [3]

C[C@H]1C[C@H]2[C@@H]3CCC4=CC(=O)C=C[C@]4(C)[C@@]3(F)[C@@H](O)C[C@]2(C)[C@@]1(O)C(=O)CO [BETAMETHASONE]
Not Active: IC50 [1] | IC50 [2] | IC50 [3]

C#C[C@]1(O)CC[C@H]2[C@@H]3CCC4=CC(=O)CC[C@@H]4[C@H]3CC[C@@]21C [NORETHINDRONE]
Not Active: IC50 [1] | IC50 [2] | IC50 [3]

CC[C@H]1OC(=O)[C@H](C)[C@@H](O[C@H]2C[C@@](C)(OC)[C@@H](O)[C@H](C)O2)[C@H](C)[C@@H](O[C@@H]2O[C@H](C)C[C@H](N(C)C)[C@H]2O)[C@](C)(O)C[C@@H](C)C(=O)[C@H](C)[C@@H](O)[C@]1(C)O [ERYTHROMYCIN]
Not Active: IC50 [1] | IC50 [2] | IC50 [3]
